Assay results reported in patent EP0103381B1, “Substituted anthra(1,9-cd)pyrazol-6(2H)-ones” (WARNER-LAMBERT COMPANY, priority 1982, dated 1984).

Tests used:
Aerobacter aerogenes = experiment: agar plate paper-disc inhibition zone screening; assay type: cell-based; conditions: Klebsiella aerogenes, read-out: Inhibition Zone Diameter mm (Dose mg/ml) A. Aerogenes; for zone of inhibition at 3000 µg/mL: Dose 3.0 mg/ml; for zone of inhibition at 500 µg/mL: Dose 0.5 mg/ml
Protocol: (§1) The bacterial and yeast isolates are maintained in agar slants or in liquid media, hereby designated as inoculum media. The cultures are transferred at regular intervals in such media. (See Table for the corresponding inoculum media of each culture.) The organisms are generally transferred on to agar slants or liquid inoculum media and incubated overnight (18-20 hours): 37°C for the bacterial isolates and 28°C for the fungal cultures.
(§2) The microbial cells from the overnight agar slants are then scraped off and suspended in saline solution (0.85% NaCI). The microbial concentrations are adjusted to a light transmittancy of 20-35%, Junior Coleman Spectrophotometer (555 M). For the organisms that are maintained in liquid media, an aliquot of the culture suspension is simply diluted with saline to 20-35% light transmittancy.
(§3) The above microbial suspension serve as inocula for the assay plates. Thus, 0.16-10 ml (see Table for exact amount) are used to inoculate 100 ml of the molten-agar assay medium.
(§4) Stainless steel frames, 12.3 x 25.3 cm (ID) and glass plates, 15.3 x 31.7 cm are used to make the test trays. The frames are attached to the plates with tape at each end and the inner edges sealed with 2% agar. Twenty five ml of inoculated assay medium is spread evenly on each tray and allowed to solidify. The trays are covered, inverted, and refrigerated until used.
(§5) The compounds or samples to be tested are dissolved in suitable solvents, e.g., alcohols, dimethylsulfoxide, or N,N-dimethylformamide. The samples are generally dissolved so that the final concentration of the solvent is <10%.^* The compounds are tested at different concentrations: 3,000; 1,000; 500; 100; and 10 mcg/ml. Paper discs (12.7 mm diameter) are placed on the agar trays with forceps, then 0.08 ml of the dissolved compound is pipetted onto each disc using a 0.2 ml pipette.
(§6) The disked agar trays are incubated overnight (18-20 hours) at 37°C for the bacterial cultures and 28°C for the yeasts. The Penicillium avellaneium tray is incubated for at least […] since it is a slower- growing organism.
(§7) Active compounds show a zone of inhibition around the disc. The diameter of the zone is measured in mm. The zone diameter of active compounds ranges from a minimum of 13.5 mm to as high as 60 mm. The size of the zone diameter generally reflects the activity of the compound: the larger the zone the greater the activity.

Bacillus subtilis = experiment: agar plate paper-disc inhibition zone screening; assay type: cell-based; conditions: read-out: Inhibition Zone Diameter mm (Dose mg/ml) B. Subtilis; for zone of inhibition at 3000 µg/mL: Dose 3.0 mg/ml; for zone of inhibition at 1000 µg/mL: Dose 1.0 mg/ml; for zone of inhibition at 100 µg/mL: Dose 0.1 mg/ml
Protocol: as §1, §2, §3, §4, §5, §6, §7

Streptococcus faecalis = experiment: agar plate paper-disc inhibition zone screening; assay type: cell-based; conditions: Enterococcus faecalis, read-out: Inhibition Zone Diameter mm (Dose mg/ml) S. Faecalis; for zone of inhibition at 3000 µg/mL: Dose 3.0 mg/ml
Protocol: as §1, §2, §3, §4, §5, §6, §7

Escherichia coli = experiment: agar plate paper-disc inhibition zone screening; assay type: cell-based; conditions: read-out: Inhibition Zone Diameter mm (Dose mg/ml) E. Coli; for zone of inhibition at 3000 µg/mL: Dose 3.0 mg/ml; for zone of inhibition at 500 µg/mL: Dose 0.5 mg/ml
Protocol: as §1, §2, §3, §4, §5, §6, §7

Penicillium avellaneum = experiment: agar plate paper-disc inhibition zone screening; assay type: cell-based; conditions: Hamigera avellanea, read-out: Inhibition Zone Diameter mm (Dose mg/ml) P. Avellaneum; for zone of inhibition at 3000 µg/mL: Dose 3.0 mg/ml; for zone of inhibition at 500 µg/mL: Dose 0.5 mg/ml
Protocol: The Penicillium avellaneum is grown for six days, at 28°C, on an agar medium. This is to allow sporulation of the culture. The organism is then harvested by scraping off the cells from the agar surface (mycelia and spores) and suspending them in saline solution containing 0.05% Tween 80.
The suspension is adjusted to a light transmittancy of 20%. One ml of this suspension is used to inoculate 100 ml of the molten-agar assay medium.
as §4, §5, §6, §7

[1] = tested on: lymphocytic leukemia P388; experiment: in vivo lymphocytic leukemia P388 test; set-up: species or system mice; conditions: Mus musculus, P388, ip, 720 h, two single doses four days apart, read-out: T/C × 100 (Percent); for response vs control in vivo at 6.25 mg/kg: P388, Dose 6.25 mg/kg intraperitoneally
Protocol: The in vivo lymphocytic leukemia P388 test is carried out by the United States National Cancer Institute. The animals used are either male or female CD2F, mice. There are six to seven animals per test group. The tumor transplant is by intraperitoneal injection of dilute ascitic fluid containing cells of lymphocytic leukemia P388. The test compounds are administered intraperitoneally in two single doses with a four-day interval between doses at various dose levels following tumor inoculation. The animals are weighed and survivors are recorded on a regular basis for 30 days. A ratio of survival time for treated (T)/ control (C) animals is calculated. The criterion for efficacy is T/C x 100 > 125%. The positive control compound in this test is 1,4-dihydroxy-5,8-[bis[[2-[(2-hydroxyethyl)amino]-ethyl]amino]-9,10-anthracene- dione given at dosages ranging from 12.0 to 0.075 mg/kg. See Cancer Chemotherapy Reports, Part 3, 3, 1 (1972) for a comprehensive discussion of the protocol.

SMILES	zone of inhibition at 3000 µg/mL (Aerobacter aerogenes)	zone of inhibition at 3000 µg/mL (Bacillus subtilis)	zone of inhibition at 3000 µg/mL (Streptococcus faecalis)	zone of inhibition at 3000 µg/mL (Escherichia coli)	zone of inhibition at 3000 µg/mL (Penicillium avellaneum)	also measured
O=C1c2c(O)ccc(O)c2-c2nn(CCO)c3ccc(NCCNCCO)c1c23 [Example 36, 5-[[2-[(2-Hydroxyethyl)amino]ethyl]amino]-7,10-dihydroxy-2-(2-hydroxyethyl)anthra[1,9-cd]pyrazol-6(2H)- . one]	0 mm	17 mm	0 mm	0 mm	0 mm	response vs control in vivo at 6.25 mg/kg [1]: 143%; response vs control in vivo at 12.5 mg/kg ([1]; P388, Dose 12.5 mg/kg intraperitoneally): 158%; response vs control in vivo at 50 mg/kg ([1]; P388, Dose 50 mg/kg intraperitoneally): 163%; response vs control in vivo at 100 mg/kg ([1]; P388, Dose 100 mg/kg intraperitoneally): 172%
CN(C)CCn1nc2c3c(c(NCCNCCO)ccc31)C(=O)c1c(O)ccc(O)c1-2 [Example 32]	–	–	0 mm	–	0 mm	zone of inhibition at 1000 µg/mL (Aerobacter aerogenes; Dose 1.0 mg/ml): 14 mm; zone of inhibition at 1000 µg/mL (Bacillus subtilis): 15 mm; zone of inhibition at 500 µg/mL (Escherichia coli): 15 mm; response vs control in vivo at 0.78 mg/kg ([1]; P388, Dose 0.78 mg/kg intraperitoneally): 161%; response vs control in vivo at 1.56 mg/kg ([1]; P388, Dose 1.56 mg/kg intraperitoneally): 163%; response vs control in vivo at 6.25 mg/kg [1]: 214%
NCCn1nc2c3c(c(Cl)ccc31)C(=O)c1ccccc1-2 [H; Cl*; (CH2)2NH2, 2-(2-Aminoethyl)-5-chloroanthra[1,9-cd]pyrazol-6(2H)-one]	–	14 mm	0 mm	–	16 mm	zone of inhibition at 100 µg/mL (Aerobacter aerogenes; Dose 0.1 mg/ml): 25 mm; zone of inhibition at 100 µg/mL (Escherichia coli; Dose 0.1 mg/ml): 16 mm
CN(C)CCn1nc2c3c(c(Cl)ccc31)C(=O)c1c(O)ccc(O)c1-2 [7,10-(OH)2; Cl*; (CH2)2NMe2, 5-Chloro-2-[2-(dimethylamino)ethyl]-7,10-dihydroxyanthra[1,9-cd]pyrazol-6(2H)-one]	15 mm	0 mm	0 mm	–	–	zone of inhibition at 1000 µg/mL (Escherichia coli; Dose 1.0 mg/ml): 14 mm; zone of inhibition at 500 µg/mL (Penicillium avellaneum): 15 mm
CCN(CC)CCCCCCCNc1ccc2c3c(nn2CCO)-c2ccccc2C(=O)c13 [Example 17, 5-[[7-(Diethylamino)heptyl]amino]-2-(2-hydroxyethyl)anthra[1,9-cd]pyrazol-6(2H)-one]	0 mm	–	0 mm	0 mm	0 mm	zone of inhibition at 1000 µg/mL (Bacillus subtilis): 20 mm
CN(CCO)CCn1nc2c3c(c(Cl)ccc31)C(=O)c1c(O)ccc(O)c1-2 [7,10-(OH)2; Cl*; Me | (CH2)2N (CH2)2OH, 5-Chloro-7,10-dihydroxy-2-[2-[(2-hydroxyethyl)methylamino]ethyl]anthra[1,9-cd]pyrazol-6(2H)-one]	0 mm	0 mm	0 mm	14 mm	0 mm	–
CCN(CC)CCCCNc1ccc2c3c(nn2CCO)-c2ccccc2C(=O)c13 [Example 16, 5-[[4-(Diethylamino)butyl]amino]-2-(2-hydroxyethyl)anthra[1,9-cd]pyrazol-6(2H)-one]	0 mm	–	0 mm	0 mm	0 mm	zone of inhibition at 1000 µg/mL (Bacillus subtilis): 25 mm
COCCn1nc2c3c(c(NCCN)ccc31)C(=O)c1c(O)ccc(O)c1-2 [Example 77, 5-[(2-Aminoethyl)amino]-7,10-dihydroxy-2-(2-methoxyethyl)anthra(1,9-cd]pyrazol-6(2H)-one]	14 mm	16 mm	0 mm	16 mm	0 mm	–
CN(C)CCNCCn1nc2c3c(c(Cl)ccc31)C(=O)c1c(O)ccc(O)c1-2 [7,10-(OH)2; Cl*; (CH2)2NH(CH2)2NMe2, 5-Chloro-2-[2-[[2-(dimethylamino)ethyl]amino]ethyl]-7,10-dihydroxyanthra[1,9-cd]pyrazol-6(2H)-one]	0 mm	14 mm	0 mm	0 mm	0 mm	–
CCN(CC)CCn1nc2c3c(c(Cl)ccc31)C(=O)c1ccccc1-2 [H; Cl*; (CH2)2NEt2, 5-Chloro-2-[2-(diethylamino)ethyl]anthra[1,9-cd]pyrazol-6(2H)-one]	–	–	–	–	–	zone of inhibition at 500 µg/mL (Aerobacter aerogenes): 14 mm; zone of inhibition at 100 µg/mL (Bacillus subtilis): 16 mm; zone of inhibition at 1000 µg/mL (Streptococcus faecalis; Dose 1.0 mg/ml): 16 mm; zone of inhibition at 500 µg/mL (Escherichia coli): 14 mm; zone of inhibition at 500 µg/mL (Penicillium avellaneum): 16 mm
O=C1c2ccccc2-c2nn(CCO)c3ccc(NCCNCCO)c1c23 [Example 12, 2-(2-Hydroxyethyl)-5-[[2-[(2-hydroxyethyl)amino]ethyl]amino]anthra[1,9-cd]pyrazol-6(2H)-one]	–	–	16 mm	14 mm	0 mm	zone of inhibition at 500 µg/mL (Aerobacter aerogenes): 14 mm; zone of inhibition at 100 µg/mL (Bacillus subtilis): 14 mm
CCN(CC)CC(O)Cn1nc2c3c(c(Cl)ccc31)C(=O)c1c(O)ccc(O)c1-2 (stereo not drawn) [7,10-(OH)2; Cl*; CH2CHOHCH2NEt2, 5-Chloro-2-[3-(diethylamino)-2-hydroxypropyl]-7,10-dihydroxyanthra[1,9-cd]pyrazol-6(2H)-one]	0 mm	14 mm	14 mm	–	14 mm	zone of inhibition at 500 µg/mL (Escherichia coli): 14 mm
NCCNc1ccc2c3c(nn2CCN)-c2c(O)ccc(O)c2C(=O)c13 [Example 72, 2-(2-Aminoethyl)-5-[(2-aminoethyl)amino]-7,10-dihydroxyanthra[1,9-cd]pyrazol-6(2H)-one]	14 mm	0 mm	0 mm	0 mm	0 mm	–
